In paper PMC6467921, “Biosynthesis of DHGA12 and its roles in Arabidopsis seedling establishment” (Nature Communications, 2019):

Experiments:
[1] = molecular target: T1, GAS2 (Arabidopsis thaliana, UniProt F4INZ9); test: product of in vitro GAS2 reaction identified by LC-MS, compared with synthetic standard; assay type: biochemical
T1 construct: gene GIM2; recombinant purified GAS2
T1 sequence (F4INZ9 1-366): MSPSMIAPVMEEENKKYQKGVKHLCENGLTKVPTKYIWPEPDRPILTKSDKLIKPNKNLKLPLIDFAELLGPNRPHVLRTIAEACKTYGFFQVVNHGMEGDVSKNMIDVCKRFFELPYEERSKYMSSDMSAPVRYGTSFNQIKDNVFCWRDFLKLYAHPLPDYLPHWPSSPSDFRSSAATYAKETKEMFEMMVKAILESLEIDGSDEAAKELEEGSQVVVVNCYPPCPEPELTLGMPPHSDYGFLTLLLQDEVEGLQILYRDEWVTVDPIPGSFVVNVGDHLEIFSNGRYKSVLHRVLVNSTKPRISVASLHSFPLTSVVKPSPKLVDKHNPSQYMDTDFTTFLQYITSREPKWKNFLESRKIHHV

[2] = molecular target: T2, GID1c (Arabidopsis thaliana, UniProt Q940G6); test: microscale thermophoresis (MST), NT-647-labeled GST-GID1c; assay type: binding
T2 construct: glutathione S-transferase (GST)-tagged GID1c
T2 sequence (Q940G6 2-344): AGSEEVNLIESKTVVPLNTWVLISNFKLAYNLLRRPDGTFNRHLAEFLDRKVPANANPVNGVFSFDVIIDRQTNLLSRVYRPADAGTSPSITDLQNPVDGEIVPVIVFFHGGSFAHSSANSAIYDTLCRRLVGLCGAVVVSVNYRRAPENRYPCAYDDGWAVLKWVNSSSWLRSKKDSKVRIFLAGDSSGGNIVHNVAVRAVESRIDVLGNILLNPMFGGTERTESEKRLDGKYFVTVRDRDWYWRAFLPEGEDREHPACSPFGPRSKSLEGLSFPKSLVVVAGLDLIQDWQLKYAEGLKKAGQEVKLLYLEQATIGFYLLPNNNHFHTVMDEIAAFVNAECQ

| SMILES | product of in vitro GAS2 reaction identified by LC-MS, compared with synthetic s [1] | Kd [2] [nM] |
| --- | --- | --- |
| C[C@@]12CCC[C@@](C)(C(=O)O)[C@H]1[C@H](C(=O)O)[C@@]13C[C@@H](CC[C@@H]21)[C@](C)(O)C3 [DHGA12] | Our data demonstrate that GAS2 exhibits hydration activity using GA12 as a substrate to produce DHGA12. | 1450 ± 250 |
| C=C1C[C@]23C[C@H]1CC[C@H]2[C@@]12CC[C@H](O)[C@@](C)(C(=O)O1)[C@H]2[C@@H]3C(=O)O [GA4] | – | 680 ± 120 |
